# System: Round-Up Ready crops
# Experiment: Field tests on use of Glyphosate on Round-Up Ready crops
# Assay type: in vivo
# Settings: Glyphosate-tolerant (Round-Up Ready) crops
# Excerpt: This adverse effect is referred to as the Glyphosate's phytotoxicity in present application.
structure (smiles),measurement,value
O=C(O)CNCP(=O)(O)O [Glyphosate],effect on the growth of Round-Up Ready crops (Glyphosate's phytotoxicity),substantial adverse effect to the growth

# Reference: US8153559B2, “Certain plant growth regulators (PGRs) as safener to Glyphosate for application to Glyphosate-tolerant crops” (CP Bio, Inc., priority 2004, dated 2012)
